Data: patent US4935418A, “Medical compositions of 1-aryloxy-2,3,4,5-tetrahydro-3-benzazepines and use thereof” (Hoechst-Roussel Pharmaceuticals Inc., priority 1988, dated 1990)
Where a name gives a salt, the structure may show the parent alone.

Experiments:
Type in all cases: in vivo
[1] = system: 5-hydroxytryptophan induced seizures in rats; assay: potentiation of 5-hydroxytryptophan induced seizures in rats; conditions: Rattus norvegicus, ip, intraperitoneal, read-out: ED50 (potentiation of 5-hydroxytryptophan induced seizures in 50% of the animals)
Description: The antidepressant activities of some of the compounds of the invention expressed in terms of a potentiation of 5-hydroxytryptophan induced seizures in 50% of the animals is given in Table II.

[2] = system: spontaneous hypertensive rat; assay: antihypertensive activity in the spontaneous hypertensive rat, indirect tail cuff method; conditions: 50 mg/kg of body weight, oral, three days, measured on third day
Experimental: In this procedure a group of five animals are treated orally for three days with the test compound in relation to the control group of the same number. The drop in blood pressure is measured on the third day following administration.

[3] = system: 2-phenyl-1,4-benzoquinone-induced writhing in mice; assay: 2-phenyl-1,4-benzoquinone-induced writhing test in mice; conditions: Mus musculus, sc
Description: The compounds of the invention are also useful as analgesic agents due to their ability to alleviate pain in mammals. […] Exptl. Biol. Med., 95, 729 (1957)].

[4] = system: tetrabenazine induced ptosis in mice; assay: inhibition of tetrabenazine induced ptosis in mice; conditions: Mus musculus, oral, read-out: ED50 (50% inhibition of tetrabenazine-induced ptosis)
Description: The antidepressant activities of some of the compounds of the invention expressed in terms of a 50% inhibition of ptosis of tetrabenazine-induced ptosis in mice is given in Table I.

Which ED50 [1] does the source give for `COc1cc2c(cc1OC)C(Oc1ccc(C)cc1)CN(C)CC2` (centres unmarked) [7,8-Dimethoxy-3-methyl-1-(4-methylphenoxy)-2,3,4,5-tetrahydro-3-benzazepinemaleate] here?
Its ED50 is 0.9 mg/kg.

For `CNCCN1CCc2ccccc2C(Oc2ccc(C(F)(F)F)cc2)C1.O=C(O)C(=O)O.O=C(O)C(=O)O` (centres unmarked) [3-(2-Methylaminoethyl)-2,3,4,5-tetrahydro-1-(p-trifluoromethylphenoxy)-3-benzazepine dioxalate], which “Decrease in Blood Pressure (mean arterial)” value (“Decrease in Blood Pressure” for short) [2] is on record?
The value was 33 mm HG.

Which inhibition in vivo at 25 mg/kg ([3]; subcutaneous, mice) does the source give for `Clc1cccc(OC2CN(CCc3ccccc3)CCc3ccccc32)c1` (centres unmarked) [1-(m-Chlorophenoxy)-3-(2-phenylethyl)-2,3,4,5-tetrahydro-3-benzazepine oxalate] here?
The inhibition in vivo at 25 mg/kg was 42%.

Which ED50 [1] does the source give for `COc1cc2c(cc1OC)C(Oc1ccc(F)cc1)CNCC2.O=C(O)/C=C\C(=O)O` (centres unmarked) [7,8-Dimethoxy-1-(4-fluorophenoxy)-2,3,4,5-tetrahydro-3-benzazepine maleate] here?
Its ED50 is 2.9 mg/kg.

How did the inhibition in vivo at 8.2 mg/kg ([3]; subcutaneous, 8.2 mg/kg, mice) turn out when `NCCCN1CCc2ccccc2C(Oc2ccc(C(F)(F)F)cc2)C1` (centres unmarked) [3-(3-Aminopropyl)-2,3,4,5-tetrahydro-1-(p-trifluoromethylphenoxy)-3-benzazepine dimaleate] was run?
Its inhibition in vivo at 8.2 mg/kg is 50%.

With `N=C(N)NCCN1CCCCCCC1` [guanethidine, reference compound] as the compound, how does the “Decrease in Blood Pressure” value [2] read?
The value was 20 mm HG.

`CCC(=O)O[C@](Cc1ccccc1)(c1ccccc1)[C@H](C)CN(C)C` [propoxyphene, reference compound] was tested. Which inhibition in vivo at 3.9 mg/kg ([3]; read-out: Inhibition of Writhing) did it give?
Its inhibition in vivo at 3.9 mg/kg is 50%.

With `NCCN1CCc2ccccc2C(Oc2cccc(Cl)c2)C1.O=C(O)C(=O)O.O=C(O)C(=O)O` (centres unmarked) [3-(2-Aminoethyl)-1-(m-chlorophenoxy)-2,3,4,5-tetrahydro-3-benzazepine dioxalate] as the compound, how does the ED50 [4] read?
Its ED50 is 7.5 mg/kg.

How did the ED50 [1] turn out when `FC(F)(F)c1ccc(OC2CNCCc3ccccc32)cc1.O=C(O)C(=O)O` (centres unmarked) [1-(p-Trifluoromethylphenoxy)-2,3,4,5-tetrahydro-3-benzazepine oxalate] was run?
The ED50 was 2.9 mg/kg.

How did the ED50 [1] turn out when `COc1cc2c(cc1OC)C(Oc1ccccc1)CNCC2.O=C(O)C(=O)O` (centres unmarked) [7,8-Dimethoxy-1-phenoxy-2,3,4,5-tetrahydro-3-benzazepine oxalate] was run?
The ED50 was 0.85 mg/kg.

And the ED50 [4]?
The ED50 was 3.7 mg/kg.

`COc1ccc(OC2CN(C)CCc3cc(OC)c(OC)cc32)cc1` (centres unmarked) [7,8-Dimethoxy-1-(4-methoxyphenoxy)-3-methyl-2,3,4,5-tetrahydro-3-benzazepine hydrochloride] was tested. Which inhibition in vivo at 7.6 mg/kg ([3]; subcutaneous, 7.6 mg/kg, mice) did it give?
The inhibition in vivo at 7.6 mg/kg was 50%.

For `CC(CN)N1CCc2ccccc2C(Oc2ccc(C(F)(F)F)cc2)C1` (centres unmarked) [3-(2-Amino-1-methyl)ethyl-2,3,4,5-tetrahydro-1-(p-trifluoromethylphenoxy)-3-benzazepine dioxalate], which “Decrease in Blood Pressure” value [2] is on record?
Its value is 51 mm HG.

For `COc1cc2c(cc1OC)C(Oc1ccc(C(F)(F)F)cc1)CNCC2` (centres unmarked) [7,8-Dimethoxy-2,3,4,5-tetrahydro-1-(p-trifluoromethylphenoxy)-3-benzazepineoxalate], which “Decrease in Blood Pressure” value [2] is on record?
The value was 49 mm HG.

What does the source list for `COc1cc2c(cc1OC)C(Oc1ccccc1)CN(C)CC2.O=C(O)C(=O)O` (centres unmarked) [7,8-Dimethoxy-3-methyl-1-phenoxy-2,3,4,5-tetrahydro-3-benzazepine oxalate]?
inhibition in vivo at 20 mg/kg ([3]; subcutaneous, mice): 58%; ED50 [1]: 7.5 mg/kg; ED50 [4]: 3.8 mg/kg

How did the ED50 [1] turn out when `COc1ccc(OC2CNCCc3cc(OC)c(OC)cc32)cc1.O=C(O)/C=C\C(=O)O` (centres unmarked) [7,8-Dimethoxy-1-(4-methoxyphenoxy)-2,3,4,5-tetrahydro-3-benzazepine maleate] was run?
The ED50 was 0.9 mg/kg.

How did the “Decrease in Blood Pressure” value [2] turn out when `NCCN1CCc2ccccc2C(Oc2ccc(C(F)(F)F)cc2)C1.O=C(O)C(=O)O.O=C(O)C(=O)O` (centres unmarked) [3-(2-Aminoethyl)-2,3,4,5-tetrahydro-1-(p-trifluoromethylphenoxy)-3-benzazepine dioxalate] was run?
Its value is 61 mm HG.

Which results are given for `COc1cc2c(cc1OC)C(Oc1ccc(C(F)(F)F)cc1)CN(C)CC2.Cl` (centres unmarked) [7,8-Dimethoxy-3-methyl-2,3,4,5-tetrahydro-1-(p-trifluoromethylphenoxy)-3-benzazepine hydrochloride]?
inhibition in vivo at 5.7 mg/kg ([3]; subcutaneous, 5.7 mg/kg, mice): 50%; Decrease in Blood Pressure (mean arterial) [2]: 43 mm HG

How did the ED50 [1] turn out when `CCCN1CCc2cc(OC)c(OC)cc2C(Oc2ccccc2)C1.O=C(O)C(=O)O` (centres unmarked) [7,8-Dimethoxy-1-phenoxy-3-(n-propyl)-2,3,4,5-tetrahydro-3-benzazepine oxalate] was run?
The ED50 was 0.7 mg/kg.

`Br.Cc1ccc(OC2CN(C)CCc3ccccc32)cc1` (centres unmarked) [3-Methyl-1-(p-methylphenoxy)-2,3,4,5-tetrahydro-3-benzazepine Hydrobromide] was tested. Which “Decrease in Blood Pressure” value [2] did it give?
Its value is 35 mm HG.

For `CNCCCN1c2ccccc2CCc2ccccc21` [desipramine, reference compound], which ED50 [4] is on record?
Its ED50 is 2.3 mg/kg.

How did the ED50 [1] turn out when `COc1cc2c(cc1OC)C(Oc1cccc(Cl)c1)CNCC2.O=C(O)C(=O)O` (centres unmarked) [1-(m-Chlorophenoxy)-7,8-dimethoxy-2,3,4,5-tetrahydro-3-benzazepine oxalate] was run?
The ED50 was 1.1 mg/kg.

What about the ED50 [4] of the same compound?
The ED50 was 4.2 mg/kg.

With `Clc1cccc(OC2CN(CC3CC3)CCc3ccccc32)c1` (centres unmarked) [1-(m-Chlorophenoxy)-3-cyclopropylmethyl-2,3,4,5-tetrahydro-3-benzazepine oxalate] as the compound, how does the inhibition in vivo at 25 mg/kg ([3]; subcutaneous, mice) read?
The inhibition in vivo at 25 mg/kg was 66%.

How did the inhibition in vivo at 20 mg/kg ([3]; subcutaneous, mice) turn out when `Br.COc1ccc(OC2CN(C)CCc3ccccc32)cc1` (centres unmarked) [1-(p-Methoxyphenoxy)-3-methyl-2,3,4,5-tetrhydro-3-benzazepine hydrobromide] was run?
Its inhibition in vivo at 20 mg/kg is 46%.

What about the “Decrease in Blood Pressure” value [2] of the same compound?
Its value is 48 mm HG.
